Experimental data: article PMC13086964, “USP7 deubiquitinase stabilizes FAN1 to support DNA crosslink repair and suppress CAG repeat expansion” (Nature Communications, 2026)
Where no end group is shown, it is not given here. The star is where a group is joined. FITC = O=C1OC2(c3ccc(O)cc3Oc3cc(O)ccc32)c2ccc(NC(=S)*)cc21; Biotin = O=C1N[C@H]2[C@H](CS[C@H]2CCCCC(=O)*)N1; Ahx = NCCCCCC(=O)O

Key:
[1] = tested on: USP7 TRAF (aa 2-207); assay: fluorescence polarization assay, FITC-labelled FAN1-derived peptides; type: binding, human; conditions: 8mer FITC-labelled peptides; 20 mM HEPES pH 7.4, 50 mM KCl, 1 mM TCEP, 0.005% Tween-20, 0.2% DMSO; USP7 TRAF 14-point 2-fold from 200 µM; 1 µL of 200 nM peptide added to 19 µL; n = 3
Experimental: Fig. 2 FAN1 associates with the TRAF-like and UBL domains of USP7. A Top: schematic representation of the human USP7 protein indicating point mutants. TRAF tumour necrosis factor receptor associated factor (orange), CD catalytic domain (cyan), UBL ubiquitin-like (yellow to brown). Bottom: HEK293^eGFP-FAN1 cells were transfected with either e.v. or the indicated FLAG-USP7 expression constructs. 24 h later, GFP-FAN1 expression was induced with Dox (100 ng/ml). 48 h post induction, cells were lysed and whole-cell extracts were subjected to IP using anti-FLAG M2 affinity resin. Inputs and recovered protein complexes were analysed by immunoblotting. Asterisk indicates IgG heavy chain from anti-FLAG M2 affinity resin. B Sequences of the biotinylated 12-mer FAN1-derived TRAF peptides. The corresponding amino acids are indicated. Key residues are highlighted in bold. B, C Biotinylated FAN1 TRAF peptides (10 µg) were immobilized on Strep-Tactin®XT-4Flow® resin and incubated with recombinant purified His-USP7. Inputs and recovered His-USP7 were analysed by immunoblotting. D Fluorescence polarization (FP) binding curves of FITC-labelled FAN1-derived 8mer peptides: wild-type (wt; black circle), P181A (green triangle), Q182A (orange diamond), S184A (red square). The corresponding amino acids are indicated. Key residues are highlighted in bold. FP was measured as a function of USP7-TRAF (aa 2–207) concentration. FP values were normalized by expressing the millipolarization (mP) of each sample relative to the corresponding wild-type peptide. Background signal was corrected by subtracting baseline FP measured in the absence of USP7-TRAF. […] Inputs and recovered protein complexes were analysed by immunoblotting. […]
USP7 TRAF (aa 2-207) was serially diluted (14-point, 2-fold) in assay buffer (20 mM HEPES (pH 7.4), 50 mM KCl, 1 mM TCEP, 0.005% Tween-20 (v/v), 0.2% DMSO (v/v)) from a top concentration of 200 µM. […] Fluorescence polarization (mP, millipolarization units) was measured using Agilent BioTek Synergy H1 with excitation 485 nm, emission 528 nm, gain 80, in a kinetic read (6 measurements in 30 min). […]

[2] = tested on: cellular ubiquitin conjugates; assay: cellular ubiquitin conjugates after UAE inhibition; type: cell-based; conditions: HEK293T cells, 10 μM for 2 h
Experimental: (§1) Figure S1 (related to Figure 1). […]
ubiquitin. (A) HEK293eGFP-FAN1 cells were transfected either with non-targeting (Ctrl) or the indicated siRNA oligos. 24 h later, GFP-FAN1 expression was induced with Dox (100 ng/ml). 24 h post induction, cells were lysed and whole-cell extracts were subjected to GFP-Trap resin. Inputs and recovered protein complexes were analysed by immunoblotting. (B) HEK293 cells were transfected with either e.v. or GFP-FAN1-wt expressing constructs. 48 h later, cells were lysed and whole-cell extracts were incubated with a FAN1-derived 60-mer peptide (aa 118 to 177) for 2 h and subjected to GFP-Trap resin. Inputs and recovered protein complexes were analysed by immunoblotting. (C) HEK293T cells were transfected with either e.v. or GFP-FAN1-wt expressing constructs. 48 h later, cells were either mock-treated (-) or treated (+) with TAK-243 (10 μM) for 2 h, lysed and whole-cell extracts were subjected to GFP-Trap resin. Inputs and recovered protein complexes were analysed by immunoblotting. The experiments in (A-C) were repeated three independent times.
(1 picture or pasted object on this page, not shown here)

[3] = tested on: FAN1-USP7; assay: GFP-Trap co-IP after UAE inhibition, FAN1-USP7 binding; type: cell-based, human; conditions: HEK293T cells, 10 μM for 2 h
Experimental: Cells were lysed in NP-40 buffer [50 mM tris-HCl (pH 7.5), 120 mM NaCl, 1 mM EDTA, 6 mM EGTA, 15 mM sodium pyrophosphate, and 1% NP-40, supplemented with phosphatase inhibitors (20 mM NaF and 1 mM Na3VO4) and protease inhibitors (1 mM benzamidine, 0.1 mM PMSF and cOmplete™ Protease Inhibitor Cocktail)], incubated with Benzonase (Merck) for at least 30 min at 4 °C, and clarified by centrifugation. Between 1 and 3 mg of lysates were incubated with anti-FLAG M2 (Sigma-Aldrich) or ChromoTek GFP-Trap® Agarose resin (Proteintech) for 2 h or overnight at 4 °C. The beads were then washed three times with NP-40 buffer and once with TEN100 buffer. Retrieved protein complexes were boiled in SDS sample buffer and analysed by SDS-PAGE followed by immunoblotting.
as §1
ubiquitin. (A) HEK293eGFP-FAN1 cells were transfected either with non-targeting (Ctrl) or the indicated siRNA oligos. 24 h later, GFP-FAN1 expression was induced with Dox (100 ng/ml). 24 h post induction, cells were lysed and whole-cell extracts were subjected to GFP-Trap resin. Inputs and recovered protein complexes were analysed by immunoblotting. (B) HEK293 cells were transfected with either e.v. or GFP-FAN1-wt expressing constructs. […] Inputs and recovered protein complexes were analysed by immunoblotting. […] Inputs and recovered protein complexes were analysed by immunoblotting. […]

[4] = tested on: USP7; assay: streptavidin pulldown of biotinylated FAN1 peptides with recombinant His-USP7; type: binding, human; conditions: 10 µg peptide on Strep-Tactin XT 4Flow resin, 0.5 µg recombinant USP7, 2 h at 4 °C, immunoblot; for USP7 binding of biotinylated FAN1 UBL peptide: 13mer UBL peptides; for USP7 binding of biotinylated FAN1 peptide: 12mer TRAF peptides, repeated three times
Experimental: Fig. 2 FAN1 associates with the TRAF-like and UBL domains of USP7. A Top: schematic representation of the human USP7 protein indicating point mutants. TRAF tumour necrosis factor receptor associated factor (orange), CD catalytic domain (cyan), UBL ubiquitin-like (yellow to brown). Bottom: HEK293^eGFP-FAN1 cells were transfected with either e.v. or the indicated FLAG-USP7 expression constructs. 24 h later, GFP-FAN1 expression was induced with Dox (100 ng/ml). 48 h post induction, cells were lysed and whole-cell extracts were subjected to IP using anti-FLAG M2 affinity resin. Inputs and recovered protein complexes were analysed by immunoblotting. Asterisk indicates IgG heavy chain from anti-FLAG M2 affinity resin. B Sequences of the biotinylated 12-mer FAN1-derived TRAF peptides. The corresponding amino acids are indicated. Key residues are highlighted in bold. B, C Biotinylated FAN1 TRAF peptides (10 µg) were immobilized on Strep-Tactin®XT-4Flow® resin and incubated with recombinant purified His-USP7. Inputs and recovered His-USP7 were analysed by immunoblotting. D Fluorescence polarization (FP) binding curves of FITC-labelled FAN1-derived 8mer peptides: wild-type (wt; black circle), P181A (green triangle), Q182A (orange diamond), S184A (red square). The corresponding amino acids are indicated. Key residues are highlighted in bold. FP was measured as a function of USP7-TRAF (aa 2–207) concentration. FP values were normalized by expressing the millipolarization (mP) of each sample relative to the corresponding wild-type peptide. Background signal was corrected by subtracting baseline FP measured in the absence of USP7-TRAF. Data are presented as the means ± SD of three biological replicates (n = 3). E Top: schematic representation of the human USP7 protein indicating truncation mutants. TRAF tumour necrosis factor receptor associated factor, CD catalytic domain, UBL ubiquitin-like. HEK293^eGFP-FAN1 cells were transfected with either e.v. or the indicated FLAG-USP7 expression constructs. 24 h later, GFP-FAN1 expression was induced with Dox (100 ng/ml). 48 h post induction, cells were lysed and whole-cell extracts were subjected to IP using anti-FLAG M2 affinity resin. Inputs and recovered protein complexes were analysed by immunoblotting. Asterisk indicates IgG heavy chain from anti-FLAG M2 affinity resin. The experiments in (A–C, E) were repeated three independent times.
For peptide pull-down assays, biotinylated FAN1 peptides were incubated with Strep-Tactin® XT 4Flow® resin (IBA LifeScience) at room temperature for 30 minutes and washed four times with 0.1% Triton-PBS and two times with HNE buffer (20 mM HEPES pH 7.5, 0.2 mM EDTA, 0.5% NP-40, 150 mM NaCl, 0.5 mM DTT, 0.1% BSA, 0.5 mM PMSF). […] Beads were then washed three times with HNE buffer, once with TEN300 (20 mM Tris-HCl pH 7.4, 0.1 mM EDTA and 300 mM NaCl) and once with TEN100 buffer. Complexes were boiled in SDS sample buffer and analysed by SDS–PAGE followed by immunoblotting.
Figure S3 (Related to Figure 2). USP7 contacts FAN1 via its UBL domain. […]
Inputs and recovered MBP-His-FAN1 were analysed by immunoblotting. (C) Sequences of the biotinylated 13-mer FAN1-derived UBL peptides. The corresponding amino acids are indicated. Key residues are highlighted in bold. (C and D) Biotinylated FAN1 UBL peptides (10 µg) were immobilized on Strep-Tactin® XT 4Flow® resin and incubated with recombinant purified His-USP7. Inputs and recovered His-USP7 were analysed by immunoblotting. […]
The experiments in (A-E) were repeated three independent times.

## {FITC-Ahx}-SSPQSSKS [TRAF3 (8mer), FITC-labelled FAN1-derived 8mer peptide, wild-type]
[1]
  binding to the USP7 TRAF domain (FP): bound efficiently to the USP7 TRAF domain

## {FITC-Ahx}-SSPQSAKS [TRAF3 S184A (8mer), FITC-labelled FAN1-derived 8mer peptide, S184A]
[1]
  binding to the USP7 TRAF domain (FP): markedly impaired binding

## NS(=O)(=O)OC[C@H]1C[C@@H](Nc2ccnc3cc(-c4cccc(SC(F)(F)F)c4)nn23)[C@H](O)[C@@H]1O [TAK-243]
[2]
  cellular ubiquitin conjugates: depletion of cellular ubiquitin conjugates
[3]
  FAN1-USP7 binding: did not impact FAN1-USP7 binding

## Biotin-SLASALSRAYVKA-NH2 [UBL2 2KA (12mer), FAN1 UBL2 K158A/K162A (2KA) 13mer peptide]
[4]
  USP7 binding of biotinylated FAN1 UBL peptide: did not abolish USP7 association
[4]; listed as K158A/K162A ‘UBL2’ mutant peptide
  USP7 binding of biotinylated FAN1 UBL peptide: no reduction in USP7 binding

## Biotin-PLEQGSSCNGPG-NH2 [TRAF4 (12mer), biotinylated 12mer FAN1 peptide containing the 358-EQGS-361 motif]
[4]
  USP7 binding of biotinylated FAN1 peptide: weak USP7 binding

## Biotin-SLASKLSRKYVKA-NH2 [UBL2 (12mer), biotinylated FAN1-derived 13mer UBL peptide with 158-KLSRK-162]
[4]
  USP7 binding of biotinylated FAN1 UBL peptide: exhibited detectable USP7 binding

## Biotin-AGSSPQSAKSTV-NH2 [TRAF3 S184A (12mer), biotinylated 12mer FAN1 peptide, S184A]
[4]; listed as S184A ‘TRAF3’ mutant peptide
  USP7 binding of biotinylated FAN1 peptide: failed to bind
[4]; listed as serine residue 184 to alanine (S184A)
  USP7 binding of biotinylated FAN1 peptide: abrogated USP7 binding

## {FITC-Ahx}-SSAQSSKS [TRAF3 P181A (8mer), FITC-labelled FAN1-derived 8mer peptide, P181A]
[1]
  binding to the USP7 TRAF domain (FP): did not abolish the interaction
